Laboratory results reported in patent publication US8802895B2, “Amide derivatives of benzene-sulfonanilide, pharmaceutical composition thereof and method for cancer treatment using the same” (Cleveland State University, priority 2010, dated 2014).

How the values were obtained:
Format in all cases: cell-based
OVCAR-4 = assay: NCIDTP 60 cancer cell lines screening, Ovarian Cancer panel
HOP-62 = assay: NCIDTP 60 cancer cell lines screening, Non-Small Cell Lung Cancer panel
HL-60(TB) = assay: NCIDTP 60 cancer cell lines screening, Leukemia panel
HCT-15 = assay: NCIDTP 60 cancer cell lines screening, Colon Cancer panel
SF-268 = assay: NCIDTP 60 cancer cell lines screening, CNS Cancer panel
HT29 = assay: NCIDTP 60 cancer cell lines screening, Colon Cancer panel
NCI-H522 = assay: NCIDTP 60 cancer cell lines screening, Non-Small Cell Lung Cancer panel
SK-OV-3 = assay: NCIDTP 60 cancer cell lines screening, Ovarian Cancer panel
SN12C = assay: NCIDTP 60 cancer cell lines screening, Renal Cancer panel
NCI-H23 = assay: NCIDTP 60 cancer cell lines screening, Non-Small Cell Lung Cancer panel
SK-MEL-5 = assay: NCIDTP 60 cancer cell lines screening, Melanoma panel
T-47D = assay: NCIDTP 60 cancer cell lines screening, Breast Cancer panel
K-562 = assay: NCIDTP 60 cancer cell lines screening, Leukemia panel
TK-10 = assay: NCIDTP 60 cancer cell lines screening, Renal Cancer panel
MDA-MB-231/ATCC = assay: NCIDTP 60 cancer cell lines screening, Breast Cancer panel
MCF7 = assay: as above
RXF 393 = assay: NCIDTP 60 cancer cell lines screening, Renal Cancer panel

SMILES: Cc1ccc(C)c(COc2cc(NC(=O)c3ccc4c(c3)OCO4)ccc2N(C)S(C)(=O)=O)c1 [Compound #10, Benzo[1,3]dioxole-5-carboxylic acid [3-(2,5-dimethyl-benzyloxy)-4-(methanesulfonyl-methyl-amino)-phenyl]-amide]
- CC50 (OVCAR-4; Homo sapiens, OVCAR-4, read-out: LC50): > 100000 nM
- TGI (OVCAR-4; OVCAR-4): >1.00E−4 Molar
- Percent Growth (OVCAR-4; OVCAR-4, Log10 Concentration −4.0 Molar): 56%
- Percent Growth (OVCAR-4; OVCAR-4, Log10 Concentration −5.0 Molar): 47%
- Percent Growth (OVCAR-4; OVCAR-4, Log10 Concentration −6.0 Molar): 54%
- Percent Growth (OVCAR-4; OVCAR-4, Log10 Concentration −7.0 Molar): 90%
- Percent Growth (OVCAR-4; OVCAR-4, Log10 Concentration −8.0 Molar): 87%
- TGI (HOP-62; HOP-62): >1.00E−4 Molar
- Percent Growth (HOP-62; HOP-62, Log10 Concentration −4.0 Molar): 19%
- Percent Growth (HOP-62; HOP-62, Log10 Concentration −5.0 Molar): 18%
- Percent Growth (HOP-62; HOP-62, Log10 Concentration −6.0 Molar): 18%
- Percent Growth (HOP-62; HOP-62, Log10 Concentration −7.0 Molar): 84%
- Percent Growth (HOP-62; HOP-62, Log10 Concentration −8.0 Molar): 102%
- GI50 (HOP-62; Homo sapiens, HOP-62): 329 nM
- CC50 (HOP-62; Homo sapiens, HOP-62, read-out: LC50): > 100000 nM
- TGI (HL-60(TB); HL-60(TB)): 9.67E−8 Molar
- Percent Growth (HL-60(TB); HL-60(TB), Log10 Concentration −4.0 Molar): −20%
- Percent Growth (HL-60(TB); HL-60(TB), Log10 Concentration −5.0 Molar): −20%
- Percent Growth (HL-60(TB); HL-60(TB), Log10 Concentration −6.0 Molar): −12%
- Percent Growth (HL-60(TB); HL-60(TB), Log10 Concentration −7.0 Molar): −1%
- Percent Growth (HL-60(TB); HL-60(TB), Log10 Concentration −8.0 Molar): 89%
- CC50 (HL-60(TB); Homo sapiens, HL-60, read-out: LC50): > 100000 nM
- GI50 (HL-60(TB); Homo sapiens, HL-60(TB)): 26.9 nM
- TGI (HCT-15; HCT-15): >1.00E−4 Molar
- Percent Growth (HCT-15; HCT-15, Log10 Concentration −4.0 Molar): 17%
- Percent Growth (HCT-15; HCT-15, Log10 Concentration −5.0 Molar): 17%
- Percent Growth (HCT-15; HCT-15, Log10 Concentration −6.0 Molar): 22%
- Percent Growth (HCT-15; HCT-15, Log10 Concentration −7.0 Molar): 74%
- Percent Growth (HCT-15; HCT-15, Log10 Concentration −8.0 Molar): 96%
- GI50 (HCT-15; Homo sapiens, HCT-15): 289 nM
- CC50 (HCT-15; Homo sapiens, HCT-15, read-out: LC50): > 100000 nM
- GI50 (SF-268; Homo sapiens, SF-268): 288 nM
- CC50 (SF-268; Homo sapiens, SF-268, read-out: LC50): > 100000 nM
- TGI (SF-268; SF-268): >1.00E−4 Molar
- Percent Growth (SF-268; SF-268, Log10 Concentration −4.0 Molar): 16%
- Percent Growth (SF-268; SF-268, Log10 Concentration −5.0 Molar): 9%
- Percent Growth (SF-268; SF-268, Log10 Concentration −6.0 Molar): 19%
- Percent Growth (SF-268; SF-268, Log10 Concentration −7.0 Molar): 77%
- Percent Growth (SF-268; SF-268, Log10 Concentration −8.0 Molar): 93%
- TGI (HT29; HT29): 4.19E−7 Molar
- Percent Growth (HT29; HT29, Log10 Concentration −4.0 Molar): −48%
- Percent Growth (HT29; HT29, Log10 Concentration −5.0 Molar): −48%
- Percent Growth (HT29; HT29, Log10 Concentration −6.0 Molar): −26%
- Percent Growth (HT29; HT29, Log10 Concentration −7.0 Molar): 44%
- Percent Growth (HT29; HT29, Log10 Concentration −8.0 Molar): 101%
- CC50 (HT29; Homo sapiens, HT-29, read-out: LC50): > 100000 nM
- GI50 (HT29; Homo sapiens, HT-29, HT29): 77.2 nM
- inhibition of cancer cell growth (NCI screening results, in words) (HT29; many types of cancer cell including HT29 colon cancer cells): very potent to inhibit the growth
- GI50 (NCI-H522; Homo sapiens, NCI-H522): 33.5 nM
- CC50 (NCI-H522; Homo sapiens, NCI-H522, read-out: LC50): > 100000 nM
- TGI (NCI-H522; NCI-H522): 2.40E−7 Molar
- Percent Growth (NCI-H522; NCI-H522, Log10 Concentration −4.0 Molar): −36%
- Percent Growth (NCI-H522; NCI-H522, Log10 Concentration −5.0 Molar): −42%
- Percent Growth (NCI-H522; NCI-H522, Log10 Concentration −6.0 Molar): −37%
- Percent Growth (NCI-H522; NCI-H522, Log10 Concentration −7.0 Molar): 23%
- Percent Growth (NCI-H522; NCI-H522, Log10 Concentration −8.0 Molar): 80%
- GI50 (SK-OV-3; Homo sapiens, SK-OV-3): 285 nM
- CC50 (SK-OV-3; Homo sapiens, SK-OV-3, read-out: LC50): > 100000 nM
- TGI (SK-OV-3; SK-OV-3): >1.00E−4 Molar
- Percent Growth (SK-OV-3; SK-OV-3, Log10 Concentration −4.0 Molar): 5%
- Percent Growth (SK-OV-3; SK-OV-3, Log10 Concentration −5.0 Molar): 5%
- Percent Growth (SK-OV-3; SK-OV-3, Log10 Concentration −6.0 Molar): 8%
- Percent Growth (SK-OV-3; SK-OV-3, Log10 Concentration −7.0 Molar): 85%
- Percent Growth (SK-OV-3; SK-OV-3, Log10 Concentration −8.0 Molar): 99%
- TGI (SN12C): >1.00E−4 Molar
- GI50 (SN12C; Homo sapiens): 472 nM
- CC50 (SN12C; Homo sapiens, read-out: LC50): > 100000 nM
- Percent Growth (SN12C; Log10 Concentration −4.0 Molar): 23%
- Percent Growth (SN12C; Log10 Concentration −5.0 Molar): 22%
- Percent Growth (SN12C; Log10 Concentration −6.0 Molar): 30%
- Percent Growth (SN12C; Log10 Concentration −7.0 Molar): 91%
- Percent Growth (SN12C; Log10 Concentration −8.0 Molar): 96%
- GI50 (NCI-H23; Homo sapiens, NCI-H23): 162 nM
- CC50 (NCI-H23; Homo sapiens, NCI-H23, read-out: LC50): > 100000 nM
- TGI (NCI-H23; NCI-H23): >1.00E−4 Molar
- Percent Growth (NCI-H23; NCI-H23, Log10 Concentration −4.0 Molar): 2%
- Percent Growth (NCI-H23; NCI-H23, Log10 Concentration −5.0 Molar): 3%
- Percent Growth (NCI-H23; NCI-H23, Log10 Concentration −6.0 Molar): 5%
- Percent Growth (NCI-H23; NCI-H23, Log10 Concentration −7.0 Molar): 62%
- Percent Growth (NCI-H23; NCI-H23, Log10 Concentration −8.0 Molar): 97%
- GI50 (SK-MEL-5; Homo sapiens, SK-MEL-5): 253 nM
- CC50 (SK-MEL-5; Homo sapiens, SK-MEL-5, read-out: LC50): 34100 nM
- TGI (SK-MEL-5; SK-MEL-5): 1.65E−6 Molar
- Percent Growth (SK-MEL-5; SK-MEL-5, Log10 Concentration −4.0 Molar): −57%
- Percent Growth (SK-MEL-5; SK-MEL-5, Log10 Concentration −5.0 Molar): −42%
- Percent Growth (SK-MEL-5; SK-MEL-5, Log10 Concentration −6.0 Molar): 12%
- Percent Growth (SK-MEL-5; SK-MEL-5, Log10 Concentration −7.0 Molar): 76%
- Percent Growth (SK-MEL-5; SK-MEL-5, Log10 Concentration −8.0 Molar): 90%
- CC50 (T-47D; Homo sapiens, T47D, read-out: LC50): > 100000 nM
- GI50 (T-47D; Homo sapiens, T47D, T-47D): 682 nM
- TGI (T-47D; T-47D): >1.00E−4 Molar
- Percent Growth (T-47D; T-47D, Log10 Concentration −4.0 Molar): 27%
- Percent Growth (T-47D; T-47D, Log10 Concentration −5.0 Molar): 29%
- Percent Growth (T-47D; T-47D, Log10 Concentration −6.0 Molar): 45%
- Percent Growth (T-47D; T-47D, Log10 Concentration −7.0 Molar): 77%
- Percent Growth (T-47D; T-47D, Log10 Concentration −8.0 Molar): 89%
- CC50 (K-562; Homo sapiens, K562, read-out: LC50): > 100000 nM
- GI50 (K-562; Homo sapiens, K562, K-562): 40.3 nM
- TGI (K-562; K-562): >1.00E−4 Molar
- Percent Growth (K-562; K-562, Log10 Concentration −4.0 Molar): 9%
- Percent Growth (K-562; K-562, Log10 Concentration −5.0 Molar): 9%
- Percent Growth (K-562; K-562, Log10 Concentration −6.0 Molar): 11%
- Percent Growth (K-562; K-562, Log10 Concentration −7.0 Molar): 20%
- Percent Growth (K-562; K-562, Log10 Concentration −8.0 Molar): 96%
- GI50 (TK-10; Homo sapiens, TK-10): 354 nM
- CC50 (TK-10; Homo sapiens, TK-10, read-out: LC50): > 100000 nM
- TGI (TK-10; TK-10): >1.00E−4 Molar
- Percent Growth (TK-10; TK-10, Log10 Concentration −4.0 Molar): 9%
- Percent Growth (TK-10; TK-10, Log10 Concentration −5.0 Molar): 6%
- Percent Growth (TK-10; TK-10, Log10 Concentration −6.0 Molar): 18%
- Percent Growth (TK-10; TK-10, Log10 Concentration −7.0 Molar): 88%
- Percent Growth (TK-10; TK-10, Log10 Concentration −8.0 Molar): 92%
- CC50 (MDA-MB-231/ATCC; Homo sapiens, MDA-MB-231, read-out: LC50): > 100000 nM
- GI50 (MDA-MB-231/ATCC; Homo sapiens, MDA-MB-231/ATCC): 256 nM
- TGI (MDA-MB-231/ATCC; MDA-MB-231/ATCC): 9.26E−7 Molar
- Percent Growth (MDA-MB-231/ATCC; MDA-MB-231/ATCC, Log10 Concentration −4.0 Molar): −7%
- Percent Growth (MDA-MB-231/ATCC; MDA-MB-231/ATCC, Log10 Concentration −5.0 Molar): −17%
- Percent Growth (MDA-MB-231/ATCC; MDA-MB-231/ATCC, Log10 Concentration −6.0 Molar): −3%
- Percent Growth (MDA-MB-231/ATCC; MDA-MB-231/ATCC, Log10 Concentration −7.0 Molar): 87%
- Percent Growth (MDA-MB-231/ATCC; MDA-MB-231/ATCC, Log10 Concentration −8.0 Molar): 90%
- GI50 (MCF7; Homo sapiens, MCF7): 120 nM
- CC50 (MCF7; Homo sapiens, MCF7, read-out: LC50): > 100000 nM
- TGI (MCF7; MCF7): >1.00E−4 Molar
- Percent Growth (MCF7; MCF7, Log10 Concentration −4.0 Molar): 7%
- Percent Growth (MCF7; MCF7, Log10 Concentration −5.0 Molar): 10%
- Percent Growth (MCF7; MCF7, Log10 Concentration −6.0 Molar): 16%
- Percent Growth (MCF7; MCF7, Log10 Concentration −7.0 Molar): 53%
- Percent Growth (MCF7; MCF7, Log10 Concentration −8.0 Molar): 92%
- GI50 (RXF 393; Homo sapiens, RXF 393): 128 nM
- CC50 (RXF 393; Homo sapiens, RXF 393, read-out: LC50): > 100000 nM
- TGI (RXF 393; RXF 393): 4.03E−7 Molar
- Percent Growth (RXF 393; RXF 393, Log10 Concentration −4.0 Molar): −18%
- Percent Growth (RXF 393; RXF 393, Log10 Concentration −5.0 Molar): −20%
- Percent Growth (RXF 393; RXF 393, Log10 Concentration −6.0 Molar): −39%
- Percent Growth (RXF 393; RXF 393, Log10 Concentration −7.0 Molar): 61%
- Percent Growth (RXF 393; RXF 393, Log10 Concentration −8.0 Molar): 81%
